Molecules are shown by their SMILES.

We go through 24 compounds from article PMC7587931, “Affinity of Antifungal Isoxazolo[3,4-b]pyridine-3(1H)-Ones to Phospholipids in Immobilized Artificial Membrane (IAM) Chromatography” (Molecules, 2020).

Experiment in one series: not given
Set-up: method as in PMID 31779124. The conditions noted are these: RP-LC, determined previously; cited from earlier work.
`CCCCn1oc(=O)c2c(C)cc(C)nc21` [Compound 13]: the logkw is on record as 3.69. For the compound `COc1cc(Cn2oc(=O)c3c(C)cc(C)nc32)cc(OC)c1` [Compound 11], the logkw is recorded as 3.83.

Take `CC(=O)n1oc(=O)c2cc3ccccc3nc21` [Compound 4]: the logkw is 2.79. As to `CCCn1oc(=O)c2c(C)cc(C)nc21` [Compound 15], the logkw is recorded as 3.28. Take `Cc1cc(C)c2c(=O)o[nH]c2n1` [Compound 14]: the logkw is 2.07. As to `O=c1on(Cc2ccccc2)c2nc3ccccc3cc12` [Compound 2], the logkw is 3.98. In the case of `Cc1ccc2nc3c(cc2c1)c(=O)on3C` [Compound 26], the logkw is 3.24.

Regarding `C#CCn1oc(=O)c2c(C)cc(C)nc21` [Compound 16], the logkw is on record as 2.81.

`Cn1oc(=O)c2cc3ccccc3nc21` [Compound 3]: the logkw is listed as 2.87. Turning to `COc1ccc2nc3c(cc2c1)c(=O)on3C` [Compound 19], the logkw is 3.14.

For `Cc1cc(C)c2c(=O)on(Cc3ccccc3)c2n1` [Compound 6], the logkw is given as 3.68.

Take `CC(=O)n1oc(=O)c2c(C)cc(C)nc21` [Compound 7]: the logkw was 2.53. For the compound `COc1ccc(OC)c2nc3c(cc12)c(=O)on3C` [Compound 25], the logkw is listed as 3.23. As to `O=c1onc2[nH]c3ccccc3cc1-2` [Compound 1], the logkw was 2.36. As for `Cn1oc(=O)c2cc3cc(Cl)ccc3nc21` [Compound 21], the logkw is on record as 3.33. For the compound `CCn1oc(=O)c2c(C)cc(C)nc21` [Compound 8], the logkw is on record as 2.90.

Regarding `Cc1cc(C)c2c(=O)on(C(=O)c3ccc(F)cc3)c2n1` [Compound 17], the logkw was 3.70.

Consider `Cc1ccc2cc3c(=O)on(C)c3nc2c1` [Compound 24], for which the logkw is listed as 3.21.

`Cc1cc(C)c2c(=O)on(C)c2n1` [Compound 10]: the logkw was 2.58. On to `Cn1oc(=O)c2cc3cc(F)ccc3nc21` [Compound 20], for which the logkw is given as 2.97. In the case of `Cc1cc2cc3c(=O)on(C)c3nc2cc1C` [Compound 22], the logkw is 3.50.

On to `O=C(c1ccccc1)n1oc(=O)c2cc3ccccc3nc21` [Compound 5], for which the logkw is listed as 3.76. With `COc1cc(Cn2oc(=O)c3c(C)cc(C)nc32)cc(OC)c1OC` [Compound 18], the logkw is reported as 3.67. As to `Cc1cc(C)c2c(=O)on(C(=O)c3ccccc3)c2n1` [Compound 9], the logkw is listed as 2.77.

A short description of the next series: IAM-HPLC affinity to phospholipids (CHIIAM, gradient elution). Type of series: physicochemical. The conditions noted are these: IAM.PC.DD2 column, gradient 0-85% acetonitrile, 10 mM phosphoric buffer pH 7.4, 30.0 °C.
Procedure: Thus, the CHI/CHIIAM values range from 0 to 100, corresponding to the concentration of acetonitrile in the mobile phase and reflecting the nature of the target compound: low and high values correspond to hydrophilic and lipophilic molecules, respectively.
All the HPLC experiments were carried out using a Prominence-1 LC-2030C 3D HPLC system (Shimadzu, Japan) equipped with a Diode-Array Detection (DAD) detector and an IAM.PC.DD2 column (10 × 4.6 mm; particle size 10.0 µm with an IAM guard column; Regis Technologies, Morton Grove, IL, USA). The LabSolution system (version 5.90, Shimadzu, Japan) was applied to control the HPLC system and for data collection. Before analysis, stock solutions of solutes were diluted to obtain concentrations of 100 μg/mL; the injected volume was 5 μL. The IAM-HPLC analyses were carried with a linear gradient of 0–85% phase B (where phase A was a 10 mM phosphoric buffer at pH 7.4 and phase B was acetonitrile) at a flow rate of 1.5 mL/min. The temperature of the chromatographic column was controlled and set to 30.0 °C and the analysis time was 6.5 min. The CHIIAM indices of the studied compounds were obtained using a calibration set of reference substances using the protocol proposed by Valko et al. [33]. Each HPLC analysis was run in triplicate.
As to `Cc1cc(C)c2c(=O)o[nH]c2n1` [Compound 14], the CHIIAM result is “migrated together with the front of the mobile phase”.

Regarding `Cn1oc(=O)c2cc3cc(Cl)ccc3nc21` [Compound 21], the CHIIAM amounted to 33.40. The same measure, in the same setting: the figure for `Cc1cc(C)c2c(=O)on(C(=O)c3ccccc3)c2n1` [Compound 9] is 29.99.
